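The compound was tested at five concentrations on cells cultured in 96-well plates, with a 48-hour exposure period. GI50 is the concentration that inhibits growth by half. TGI: concentration producing complete growth inhibition.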
Columns and labels:
Assay in all cases: NCI tumour cell line growth inhibition, 48 h
[1] = test system: CAKI-1 renal
[2] = test system: HCT-15 colon
[3] = test system: UACC-62 melanoma
[4] = test system: K-562 leukemia
[5] = test system: SW-620 colon
[6] = test system: A549 NSCLC
[7] = test system: SF-295 CNS
[8] = test system: SF-539 CNS
[9] = test system: OVCAR-3 ovarian
[10] = test system: HOP-62 NSCLC
[11] = test system: SK-MEL-5 melanoma
[12] = test system: SF-268 CNS
[13] = test system: HCT-116 colon
[14] = test system: HT29 colon
[15] = test system: OVCAR-8 ovarian
[16] = test system: DLD-1 colon
[17] = test system: MDA-MB-435
[18] = test system: PC-3 prostate

SMILES | TGI [1] | TGI [2] | TGI [3] | TGI [4] | TGI [5] | TGI [6] | TGI [7] | TGI [8] | TGI [9] | TGI [10] | TGI [11] | TGI [12] | TGI [13] | TGI [14] | TGI [15] | TGI [16] | GI50 [2] | TGI [17] | TGI [18]
C/C(CN1C(=O)c2ccccc2C1=O)=N\NS(=O)(=O)c1ccc(F)cc1 | > 100 µM | > 100 µM | > 100 µM | > 100 µM | > 100 µM | > 100 µM | > 100 µM | > 100 µM | > 100 µM | > 100 µM | > 100 µM | > 100 µM | > 100 µM | > 100 µM | > 100 µM | > 100 µM |  |  | 
O=C1C=C(Nc2ccccc2C(=O)CC(=O)C(=O)Nc2ccc(Cl)c(Cl)c2)c2ccccc2C1=O | > 100 µM | > 100 µM | 62.2 µM | > 100 µM |  | > 100 µM | > 100 µM | > 100 µM | > 100 µM | > 100 µM | 20.4 µM | > 100 µM |  | > 100 µM | > 100 µM | > 100 µM |  |  | 
C1=c2ccccc2=C2C(=C(c3ccccc3)C(c3ccccc3)=NN2c2ccccc2)S1 | > 100 µM | > 100 µM | > 100 µM | > 100 µM | > 100 µM | > 100 µM | > 100 µM | > 100 µM |  | > 100 µM | > 100 µM | > 100 µM | > 100 µM | > 100 µM | > 100 µM | > 100 µM |  |  | 
COC1=CC(=O)c2ccccc2C1(C)C1=NC(C)(C)CO1 (stereo not given) | > 100 µM | > 100 µM | > 100 µM | > 100 µM | > 100 µM | > 100 µM | > 100 µM | > 100 µM | > 100 µM | > 100 µM | > 100 µM | > 100 µM | > 100 µM | > 100 µM | > 100 µM | > 100 µM |  |  | 
C[N+](C)(Cc1ccc(NC(=O)CCCC(=O)ON2C(=O)CCC2=O)cc1)c1ccccc1 | > 100 µM | > 100 µM | < 0.01 µM | > 100 µM | > 100 µM | 2.08 µM | > 100 µM | < 0.01 µM | > 100 µM |  |  | 3.93 µM | 18.2 µM | > 100 µM | > 100 µM | > 100 µM | > 100 µM |  | 
COc1ccc(C2C(Cl)C(=O)N2NC(=O)c2ccc(N)cc2)cc1OC (stereo not given) | 6.84 µM | 21.3 µM | 16 µM | 16.5 µM | 11.2 µM | 34.1 µM | 18.4 µM | 21.8 µM | 13.1 µM | 32.6 µM | 26.3 µM | 36.8 µM | 3 µM | 6.28 µM | 16.4 µM | 15.4 µM |  | 19.1 µM | 25.7 µM
CO[C@H](c1ccccc1)[C@H](C)N(C)c1ccc2ccccc2c1C1=NC(C)(C)CO1 |  | 29.7 µM | > 100 µM | 88.5 µM | 33.4 µM | 35.2 µM | 30.8 µM | 29.9 µM | 30.7 µM | 36 µM | > 100 µM | 36.1 µM | 34.6 µM | 25.1 µM | 26.7 µM | 31.8 µM |  |  | 
O=C(O)Cc1ccc2c(c1O)C(=O)c1c(ccc(CC(=O)O)c1O)C2=O | > 100 µM | > 100 µM |  | > 100 µM | > 100 µM | > 100 µM | > 100 µM | > 100 µM | > 100 µM | > 100 µM | > 100 µM | > 100 µM | > 100 µM | > 100 µM | > 100 µM | > 100 µM |  |  | 
COc1cccc(/C=C2\C(=O)N(C(=O)Cc3ccccc3)N=C2C)c1 | > 100 µM | > 100 µM |  | > 100 µM | > 100 µM | > 100 µM | > 100 µM | > 100 µM | > 100 µM | > 100 µM | > 100 µM | > 100 µM | > 100 µM | > 100 µM | > 100 µM | > 100 µM |  |  | 
O=S(Cc1cc2c(cc1Br)OCO2)c1ccccc1 (stereo not given) | > 100 µM | > 100 µM | > 100 µM | > 100 µM | 29.7 µM | > 100 µM | > 100 µM | 91.2 µM | > 100 µM | > 100 µM | > 100 µM | > 100 µM | > 100 µM | > 100 µM | > 100 µM | 49.5 µM |  |  | 
CO[C@@]12CC(=O)/C(=C(O)\C=C\c3ccccc3)C(=O)[C@]1(OC)Cc1ccccc1O2 |  | 51.7 µM | 52.3 µM | > 100 µM | > 100 µM | 88.8 µM | > 100 µM | 55.4 µM | 55.9 µM | 51.7 µM | > 100 µM | 91.1 µM | > 100 µM | > 100 µM | 77.3 µM | > 100 µM |  |  | 

Source: PubChem BioAssay (NCI)
